Experimental data reported in ChEMBL document CHEMBL4507293 (2021).

Key:
[1] = target: Uncharacterized serine/threonine-protein kinase SBK3 (Homo sapiens) (UniProt P0C264); conditions: Compound concentration 100.0 nM
[2] = target: BDNF/NT-3 growth factors receptor (Homo sapiens) (UniProt Q16620); conditions: Compound concentration 100.0 nM
[3] = target: Peripheral plasma membrane protein CASK (Homo sapiens) (UniProt O14936); conditions: Compound concentration 100.0 nM
[4] = target: Protein kinase C delta type (Homo sapiens) (UniProt Q05655); conditions: Compound concentration 100.0 nM
[5] = target: Dual specificity mitogen-activated protein kinase kinase 5 (Homo sapiens) (UniProt Q13163); conditions: Compound concentration 100.0 nM
[6] = target: Maternal embryonic leucine zipper kinase (Homo sapiens) (UniProt Q14680); conditions: Compound concentration 100.0 nM
[7] = target: Tyrosine-protein kinase JAK2 (Homo sapiens) (UniProt O60674); conditions: Compound concentration 100.0 nM
[8] = target: Ephrin type-A receptor 4 (Homo sapiens) (UniProt P54764); conditions: Compound concentration 100.0 nM
Chain of Ephrin type-A receptor 4 (Homo sapiens) (P54764 whole entry): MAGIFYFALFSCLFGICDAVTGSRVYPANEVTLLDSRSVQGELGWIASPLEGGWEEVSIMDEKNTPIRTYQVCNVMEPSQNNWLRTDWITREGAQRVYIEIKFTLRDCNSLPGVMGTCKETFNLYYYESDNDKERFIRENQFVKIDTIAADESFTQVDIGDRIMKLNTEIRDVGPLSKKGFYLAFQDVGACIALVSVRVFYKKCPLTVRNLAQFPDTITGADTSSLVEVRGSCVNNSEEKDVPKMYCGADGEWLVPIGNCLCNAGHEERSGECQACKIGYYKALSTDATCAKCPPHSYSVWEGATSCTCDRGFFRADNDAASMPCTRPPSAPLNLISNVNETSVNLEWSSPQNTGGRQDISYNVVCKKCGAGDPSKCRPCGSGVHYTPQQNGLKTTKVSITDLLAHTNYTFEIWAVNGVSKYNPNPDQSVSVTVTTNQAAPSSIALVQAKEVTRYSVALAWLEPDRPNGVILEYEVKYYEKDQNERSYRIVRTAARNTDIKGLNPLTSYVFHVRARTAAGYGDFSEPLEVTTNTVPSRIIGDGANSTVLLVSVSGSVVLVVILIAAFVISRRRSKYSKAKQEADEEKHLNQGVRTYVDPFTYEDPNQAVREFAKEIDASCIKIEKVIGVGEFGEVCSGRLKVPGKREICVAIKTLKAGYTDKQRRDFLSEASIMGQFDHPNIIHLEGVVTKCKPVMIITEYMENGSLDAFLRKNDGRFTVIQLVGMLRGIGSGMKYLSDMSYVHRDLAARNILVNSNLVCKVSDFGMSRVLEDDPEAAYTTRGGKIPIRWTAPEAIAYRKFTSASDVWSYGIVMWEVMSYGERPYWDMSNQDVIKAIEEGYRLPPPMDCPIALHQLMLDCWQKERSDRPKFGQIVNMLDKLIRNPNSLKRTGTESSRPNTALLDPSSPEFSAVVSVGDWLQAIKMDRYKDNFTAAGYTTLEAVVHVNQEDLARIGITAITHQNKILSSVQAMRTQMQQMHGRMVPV

[9] = target: Atypical kinase COQ8B, mitochondrial (Homo sapiens) (UniProt Q96D53); conditions: Compound concentration 100.0 nM
[10] = target: Tyrosine-protein kinase ABL2 (Homo sapiens) (UniProt P42684); conditions: Compound concentration 100.0 nM
Chain of Tyrosine-protein kinase ABL2 (Homo sapiens) (P42684 whole entry): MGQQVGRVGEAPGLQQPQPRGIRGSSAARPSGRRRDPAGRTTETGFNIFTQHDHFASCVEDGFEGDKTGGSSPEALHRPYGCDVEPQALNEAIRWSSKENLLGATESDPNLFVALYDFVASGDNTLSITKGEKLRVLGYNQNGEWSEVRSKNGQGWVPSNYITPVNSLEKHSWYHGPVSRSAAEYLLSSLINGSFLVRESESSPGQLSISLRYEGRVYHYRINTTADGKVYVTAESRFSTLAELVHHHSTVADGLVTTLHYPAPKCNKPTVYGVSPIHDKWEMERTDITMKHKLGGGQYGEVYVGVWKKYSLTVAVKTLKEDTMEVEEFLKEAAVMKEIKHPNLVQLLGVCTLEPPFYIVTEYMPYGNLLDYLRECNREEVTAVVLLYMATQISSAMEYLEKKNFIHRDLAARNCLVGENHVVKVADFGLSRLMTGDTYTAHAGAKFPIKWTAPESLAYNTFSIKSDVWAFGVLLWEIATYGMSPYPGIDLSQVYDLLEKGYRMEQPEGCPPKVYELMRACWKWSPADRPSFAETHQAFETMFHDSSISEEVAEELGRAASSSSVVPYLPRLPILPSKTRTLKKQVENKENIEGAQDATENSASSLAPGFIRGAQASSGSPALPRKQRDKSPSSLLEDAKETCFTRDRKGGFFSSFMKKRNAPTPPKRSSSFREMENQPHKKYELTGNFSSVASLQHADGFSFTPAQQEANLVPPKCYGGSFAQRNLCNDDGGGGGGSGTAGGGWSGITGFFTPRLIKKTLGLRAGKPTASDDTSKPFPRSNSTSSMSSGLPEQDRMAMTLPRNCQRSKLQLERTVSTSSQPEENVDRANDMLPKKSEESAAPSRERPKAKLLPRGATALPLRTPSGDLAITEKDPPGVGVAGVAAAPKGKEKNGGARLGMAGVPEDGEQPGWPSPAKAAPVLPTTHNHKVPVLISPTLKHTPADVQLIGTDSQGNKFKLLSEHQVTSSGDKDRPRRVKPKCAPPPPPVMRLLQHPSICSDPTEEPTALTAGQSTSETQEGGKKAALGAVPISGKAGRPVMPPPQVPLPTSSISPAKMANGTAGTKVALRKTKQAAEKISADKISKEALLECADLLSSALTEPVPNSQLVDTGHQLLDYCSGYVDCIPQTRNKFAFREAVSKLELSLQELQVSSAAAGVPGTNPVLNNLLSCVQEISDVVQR

[11] = target: Dual specificity mitogen-activated protein kinase kinase 7 (Homo sapiens) (UniProt O14733); conditions: Compound concentration 100.0 nM
[12] = target: Dual specificity calcium/calmodulin-dependent 3',5'-cyclic nucleotide phosphodiesterase 1A (Homo sapiens, UniProt P54750); assay: Biochemical assay (PDE1A)
[13] = target: Tyrosine-protein kinase Fyn (Homo sapiens) (UniProt P06241); conditions: Compound concentration 100.0 nM
[14] = target: Homeodomain-interacting protein kinase 4 (Homo sapiens) (UniProt Q8NE63); conditions: Compound concentration 100.0 nM
[15] = target: Serine/threonine-protein kinase TAO3 (Homo sapiens) (UniProt Q9H2K8); conditions: Compound concentration 100.0 nM
[16] = system: Hepatocyte growth factor receptor (Homo sapiens), P08581 [M1250T]; conditions: Compound concentration 100.0 nM
[17] = target: Homeodomain-interacting protein kinase 3 (Homo sapiens) (UniProt Q9H422); conditions: Compound concentration 100.0 nM
[18] = target: LIM domain kinase 1 (Homo sapiens) (UniProt P53667); conditions: Compound concentration 100.0 nM
Chain of LIM domain kinase 1 (Homo sapiens) (P53667 whole entry, looked up, the tested form may be a part, canonical isoform): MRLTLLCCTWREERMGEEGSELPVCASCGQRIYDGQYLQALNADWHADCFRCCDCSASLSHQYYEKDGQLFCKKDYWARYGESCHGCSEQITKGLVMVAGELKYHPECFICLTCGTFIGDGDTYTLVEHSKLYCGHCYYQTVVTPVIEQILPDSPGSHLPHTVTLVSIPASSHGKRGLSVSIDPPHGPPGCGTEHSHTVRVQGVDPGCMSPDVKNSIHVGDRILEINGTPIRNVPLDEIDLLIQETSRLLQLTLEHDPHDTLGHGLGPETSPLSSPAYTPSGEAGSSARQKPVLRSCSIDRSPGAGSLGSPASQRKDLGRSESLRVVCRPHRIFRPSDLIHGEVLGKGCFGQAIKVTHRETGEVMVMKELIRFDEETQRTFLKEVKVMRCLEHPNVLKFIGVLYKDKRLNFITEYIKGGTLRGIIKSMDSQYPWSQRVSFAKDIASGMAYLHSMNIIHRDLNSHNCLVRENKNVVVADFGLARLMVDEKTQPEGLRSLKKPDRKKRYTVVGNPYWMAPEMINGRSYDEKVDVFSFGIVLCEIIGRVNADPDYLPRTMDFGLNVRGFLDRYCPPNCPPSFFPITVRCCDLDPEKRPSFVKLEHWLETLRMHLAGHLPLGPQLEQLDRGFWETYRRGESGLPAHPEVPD

[19] = target: Phosphatidylinositol 4,5-bisphosphate 3-kinase catalytic subunit delta isoform (Homo sapiens) (UniProt O00329); conditions: Compound concentration 100.0 nM
[20] = target: LIM domain kinase 2 (Homo sapiens) (UniProt P53671); conditions: Compound concentration 100.0 nM
[21] = target: Serine/threonine-protein kinase N2 (Homo sapiens) (UniProt Q16513); conditions: Compound concentration 100.0 nM
Chain of Serine/threonine-protein kinase N2 (Homo sapiens) (Q16513 whole entry, looked up): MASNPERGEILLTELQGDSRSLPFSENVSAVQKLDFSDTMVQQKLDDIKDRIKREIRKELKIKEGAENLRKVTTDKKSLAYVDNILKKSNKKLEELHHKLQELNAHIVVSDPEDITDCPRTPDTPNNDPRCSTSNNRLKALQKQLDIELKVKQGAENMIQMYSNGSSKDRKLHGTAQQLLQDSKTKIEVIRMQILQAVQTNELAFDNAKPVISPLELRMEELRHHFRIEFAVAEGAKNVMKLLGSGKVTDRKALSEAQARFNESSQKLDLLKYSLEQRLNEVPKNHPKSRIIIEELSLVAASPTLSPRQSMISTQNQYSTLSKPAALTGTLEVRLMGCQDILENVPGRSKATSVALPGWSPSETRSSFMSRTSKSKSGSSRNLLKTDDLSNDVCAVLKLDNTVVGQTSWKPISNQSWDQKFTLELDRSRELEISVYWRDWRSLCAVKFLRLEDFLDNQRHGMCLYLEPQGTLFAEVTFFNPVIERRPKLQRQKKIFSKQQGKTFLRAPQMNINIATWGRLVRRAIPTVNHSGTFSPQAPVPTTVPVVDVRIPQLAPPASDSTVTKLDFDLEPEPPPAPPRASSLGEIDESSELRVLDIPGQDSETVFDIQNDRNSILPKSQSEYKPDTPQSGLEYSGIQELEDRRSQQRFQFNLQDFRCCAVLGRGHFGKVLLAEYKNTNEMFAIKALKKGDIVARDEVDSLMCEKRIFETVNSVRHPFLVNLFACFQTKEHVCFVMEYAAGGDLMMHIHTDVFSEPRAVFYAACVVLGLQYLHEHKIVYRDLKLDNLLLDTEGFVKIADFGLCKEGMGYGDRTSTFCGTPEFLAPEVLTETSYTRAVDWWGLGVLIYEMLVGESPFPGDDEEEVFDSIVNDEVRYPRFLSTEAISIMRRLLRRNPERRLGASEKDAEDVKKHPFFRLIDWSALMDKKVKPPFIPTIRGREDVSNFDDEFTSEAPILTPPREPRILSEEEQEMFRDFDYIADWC

[22] = target: Mitogen-activated protein kinase kinase kinase 10 (Homo sapiens) (UniProt Q02779); conditions: Compound concentration 100.0 nM
[23] = target: Serine/threonine-protein kinase VRK2 (Homo sapiens) (UniProt Q86Y07); conditions: Compound concentration 100.0 nM
[24] = target: Aurora kinase C (Homo sapiens) (UniProt Q9UQB9); conditions: Compound concentration 100.0 nM
[25] = target: Tyrosine-protein kinase Lck (Homo sapiens) (UniProt P06239); conditions: Compound concentration 100.0 nM
[26] = target: Megakaryocyte-associated tyrosine-protein kinase (Homo sapiens) (UniProt P42679); conditions: Compound concentration 100.0 nM
[27] = target: Tyrosine-protein kinase Fes/Fps (Homo sapiens) (UniProt P07332); conditions: Compound concentration 100.0 nM
[28] = target: Ribosomal protein S6 kinase alpha-4 (Homo sapiens) (UniProt O75676); conditions: Compound concentration 100.0 nM
[29] = target: TGF-beta receptor type-2 (Homo sapiens) (UniProt P37173); conditions: Compound concentration 100.0 nM
[30] = target: Phosphorylase b kinase gamma catalytic chain, skeletal muscle/heart isoform (Homo sapiens) (UniProt Q16816); conditions: Compound concentration 100.0 nM
Chain of Phosphorylase b kinase gamma catalytic chain, skeletal muscle/heart isoform (Homo sapiens) (Q16816 whole entry, looked up, canonical isoform): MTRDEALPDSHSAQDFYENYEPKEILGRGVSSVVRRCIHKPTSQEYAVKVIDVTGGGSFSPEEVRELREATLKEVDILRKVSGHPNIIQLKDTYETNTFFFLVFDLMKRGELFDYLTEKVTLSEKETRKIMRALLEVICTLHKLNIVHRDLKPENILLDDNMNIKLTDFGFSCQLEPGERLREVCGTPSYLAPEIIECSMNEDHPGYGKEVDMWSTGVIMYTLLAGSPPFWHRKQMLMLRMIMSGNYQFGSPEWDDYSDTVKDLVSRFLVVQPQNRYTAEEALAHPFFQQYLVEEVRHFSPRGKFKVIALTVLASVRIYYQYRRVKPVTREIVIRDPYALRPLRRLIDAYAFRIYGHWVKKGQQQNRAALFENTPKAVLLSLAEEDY

[31] = target: Serine/threonine-protein kinase PknB (Mycobacterium tuberculosis) (UniProt P9WI81); conditions: Compound concentration 100.0 nM
[32] = target: Myosin light chain kinase 2, skeletal/cardiac muscle (Homo sapiens) (UniProt Q9H1R3); conditions: Compound concentration 100.0 nM
Chain of Myosin light chain kinase 2, skeletal/cardiac muscle (Homo sapiens) (Q9H1R3 whole entry): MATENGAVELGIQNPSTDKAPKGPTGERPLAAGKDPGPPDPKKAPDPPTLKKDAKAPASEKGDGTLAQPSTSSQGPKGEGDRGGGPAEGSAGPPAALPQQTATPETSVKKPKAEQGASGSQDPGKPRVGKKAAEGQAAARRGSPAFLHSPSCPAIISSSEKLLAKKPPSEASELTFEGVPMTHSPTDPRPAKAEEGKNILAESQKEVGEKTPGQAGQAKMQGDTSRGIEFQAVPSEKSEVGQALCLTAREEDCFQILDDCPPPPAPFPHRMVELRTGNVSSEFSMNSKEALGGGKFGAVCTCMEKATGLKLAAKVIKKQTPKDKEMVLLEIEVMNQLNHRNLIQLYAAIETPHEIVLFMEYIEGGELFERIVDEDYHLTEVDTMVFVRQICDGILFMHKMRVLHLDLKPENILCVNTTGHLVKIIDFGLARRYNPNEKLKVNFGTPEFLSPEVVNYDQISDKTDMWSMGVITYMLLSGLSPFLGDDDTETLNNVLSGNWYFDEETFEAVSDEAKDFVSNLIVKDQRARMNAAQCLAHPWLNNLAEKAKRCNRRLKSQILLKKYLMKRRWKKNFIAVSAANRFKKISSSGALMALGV

[33] = target: Tyrosine-protein kinase ABL1 (Homo sapiens) (UniProt P00519); conditions: Compound concentration 100.0 nM
[34] = system: Tyrosine-protein kinase ABL1 (Homo sapiens), P00519 [F317I]; conditions: Compound concentration 100.0 nM
[35] = target: Serine/threonine-protein kinase STK11 (Homo sapiens) (UniProt Q15831); conditions: Compound concentration 100.0 nM
[36] = system: Receptor-type tyrosine-protein kinase FLT3 (Homo sapiens), P36888 [D835Y]; conditions: Compound concentration 100.0 nM
[37] = target: Macrophage-stimulating protein receptor (Homo sapiens) (UniProt Q04912); conditions: Compound concentration 100.0 nM
[38] = target: Dual specificity mitogen-activated protein kinase kinase 4 (Homo sapiens) (UniProt P45985); conditions: Compound concentration 100.0 nM
[39] = target: 5-hydroxytryptamine receptor 1B (Homo sapiens) (UniProt P28222); conditions: Compound concentration 10.0 uM
[40] = system: Tyrosine-protein kinase ABL1 (Homo sapiens), P00519 [T315I]; conditions: Compound concentration 100.0 nM
[41] = target: Cyclin-dependent kinase 15 (Homo sapiens) (UniProt Q96Q40); conditions: Compound concentration 100.0 nM
[42] = target: Bone morphogenetic protein receptor type-2 (Homo sapiens) (UniProt Q13873); conditions: Compound concentration 100.0 nM
[43] = target: MAP kinase-activated protein kinase 2 (Homo sapiens) (UniProt P49137); conditions: Compound concentration 100.0 nM
[44] = target: Mitogen-activated protein kinase kinase kinase 14 (Homo sapiens) (UniProt Q99558); conditions: Compound concentration 100.0 nM
[45] = target: Dual serine/threonine and tyrosine protein kinase (Homo sapiens) (UniProt Q6XUX3); conditions: Compound concentration 100.0 nM

Compound: COCCOc1nc(-c2ccc(Cl)nc2)nc2c1CN(C(=O)c1ncn3ccccc13)CC2 [THPP-1]
- residual activity [1]: 100%
- residual activity [2]: 100%
- residual activity [3]: 95%
- residual activity [4]: 100%
- residual activity [5]: 100%
- residual activity [6]: 65%
- residual activity [7]: 100%
- residual activity [8]: 100%
- residual activity [9]: 100%
- residual activity [10]: 100%
- residual activity [11]: 95%
- Ki [12]: > 50 µM (not active)
- residual activity [13]: 100%
- residual activity [14]: 83%
- residual activity [15]: 100%
- residual activity [16]: 71%
- residual activity [17]: 100%
- residual activity [18]: 100%
- residual activity [19]: 94%
- residual activity [20]: 100%
- residual activity [21]: 55%
- residual activity [22]: 100%
- residual activity [23]: 91%
- residual activity [24]: 95%
- residual activity [25]: 100%
- residual activity [26]: 100%
- residual activity [27]: 100%
- residual activity [28]: 86%
- residual activity [29]: 94%
- residual activity [30]: 100%
- residual activity [31]: 86%
- residual activity [32]: 94%
- residual activity [33]: 60%
- residual activity [34]: 100%
- residual activity [35]: 100%
- residual activity [36]: 100%
- residual activity [37]: 100%
- residual activity [38]: 100%
- inhibition [39]: 23.3%
- residual activity [40]: 100%
- residual activity [41]: 100%
- residual activity [42]: 100%
- residual activity [43]: 73%
- residual activity [44]: 100%
- residual activity [45]: 100%

Compound: CC(C)CC(=O)N1CCc2nc(-c3ccc(Br)cc3)nc(N(C)Cc3ccccc3)c2C1 [THPP-1-NC]
- residual activity [1]: 100%
- residual activity [2]: 100%
- residual activity [3]: 81%
- residual activity [4]: 100%
- residual activity [5]: 98%
- residual activity [6]: 67%
- residual activity [7]: 100%
- residual activity [8]: 100%
- residual activity [9]: 100%
- residual activity [10]: 100%
- residual activity [11]: 79%
- Ki [12]: > 58.3 µM (not active)
- residual activity [13]: 100%
- residual activity [14]: 61%
- residual activity [15]: 100%
- residual activity [16]: 70%
- residual activity [17]: 100%
- residual activity [18]: 100%
- residual activity [19]: 82%
- residual activity [20]: 100%
- residual activity [21]: 80%
- residual activity [22]: 96%
- residual activity [23]: 77%
- residual activity [24]: 100%
- residual activity [25]: 100%
- residual activity [26]: 100%
- residual activity [27]: 100%
- residual activity [28]: 74%
- residual activity [29]: 97%
- residual activity [30]: 100%
- residual activity [31]: 97%
- residual activity [32]: 96%
- residual activity [33]: 58%
- residual activity [34]: 100%
- residual activity [35]: 100%
- residual activity [36]: 100%
- residual activity [37]: 100%
- residual activity [38]: 97%
- inhibition [39]: 12.9%
- residual activity [40]: 100%
- residual activity [41]: 100%
- residual activity [42]: 99%
- residual activity [43]: 92%
- residual activity [44]: 100%
- residual activity [45]: 100%
